According to the supplement of paper PMC10307832:

How the values were obtained:
Assay in all cases: relative viability (nuclei count vs DMSO), 5 days (fraction); higher = more cells survive
[1] = tested on: H3255
In short: (§1)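 Five library-drug doses in √10 steps were combined with a fixed anchor-drug dose, or a single drug was given alone, by pin tool to lung cancer cell lines in 1536-well plates the day after seeding. Nuclei were stained and counted after 5 days. Relative viability is the nuclei count in treated wells over that in vehicle wells, taken as the median of duplicate plates.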

[2] = tested on: PC-14
In short: as §1

[3] = tested on: NCI-H2023
In short: as §1

[4] = tested on: NCI-H2085
In short: as §1

[5] = tested on: HOP-62
In short: as §1

[6] = tested on: NCI-H2009
In short: as §1

[7] = tested on: NCI-H1915
In short: as §1

[8] = tested on: NCI-H661
In short: as §1

[9] = tested on: SK-LU-1
In short: as §1

[10] = tested on: EPLC-272H
In short: as §1

[11] = tested on: LCLC-97TM1
In short: as §1

[12] = tested on: NCI-H1993
In short: as §1

[13] = tested on: NCI-H2126
In short: as §1

[14] = tested on: NCI-H727
In short: as §1

[15] = tested on: NCI-H322M
In short: as §1

[16] = tested on: SW 1573
In short: as §1

[17] = tested on: EMC-BAC-2
In short: as §1

[18] = tested on: NCI-H1563
In short: as §1

[19] = tested on: LXF-289
In short: as §1

[20] = tested on: NCI-H2347
In short: as §1

[21] = tested on: NCI-H647
In short: as §1

## Oc1nc(-c2ccc(C(F)(F)F)cc2)nc2c1CSCC2 [XAV939] + Cc1nc(NC(=O)N2CCC[C@H]2C(N)=O)sc1-c1ccnc(C(C)(C)C(F)(F)F)c1 [Alpelisib] (partner 2 µM)
[1]; first compound 0.08 µM
  relative viability: 0.965
[1]; first compound 0.253 µM
  relative viability: 0.709
[1]; first compound 0.8 µM
  relative viability: 0.414
[1]; first compound 2.53 µM
  relative viability: 0.522
[2]; first compound 0.08 µM
  relative viability: 1.03
[2]; first compound 0.253 µM
  relative viability: 0.829
[2]; first compound 0.8 µM
  relative viability: 0.906
[2]; first compound 2.53 µM
  relative viability: 0.796
[3]; first compound 0.08 µM
  relative viability: 0.572
[3]; first compound 0.253 µM
  relative viability: 0.524
[3]; first compound 0.8 µM
  relative viability: 0.525
[3]; first compound 2.53 µM
  relative viability: 0.412
[4]; first compound 0.08 µM
  relative viability: 0.993
[4]; first compound 0.253 µM
  relative viability: 0.898
[4]; first compound 0.8 µM
  relative viability: 0.814
[4]; first compound 2.53 µM
  relative viability: 0.737
[5]; first compound 0.08 µM
  relative viability: 1.02
[5]; first compound 0.253 µM
  relative viability: 0.54
[5]; first compound 0.8 µM
  relative viability: 0.673
[5]; first compound 2.53 µM
  relative viability: 0.69
[6]; first compound 0.08 µM
  relative viability: 1.22
[6]; first compound 0.253 µM
  relative viability: 1.2
[6]; first compound 0.8 µM
  relative viability: 1.12
[6]; first compound 2.53 µM
  relative viability: 0.987
[7]; first compound 0.08 µM
  relative viability: 1.08
[7]; first compound 0.253 µM
  relative viability: 1.07
[7]; first compound 0.8 µM
  relative viability: 1.03
[7]; first compound 2.53 µM
  relative viability: 1.08
[8]; first compound 0.08 µM
  relative viability: 0.655
[8]; first compound 0.253 µM
  relative viability: 0.621
[8]; first compound 0.8 µM
  relative viability: 0.833
[8]; first compound 2.53 µM
  relative viability: 0.492
[9]; first compound 0.08 µM
  relative viability: 0.993
[9]; first compound 0.253 µM
  relative viability: 0.883
[9]; first compound 0.8 µM
  relative viability: 1
[9]; first compound 2.53 µM
  relative viability: 1.07
[10]; first compound 0.08 µM
  relative viability: 0.958
[10]; first compound 0.253 µM
  relative viability: 0.863
[10]; first compound 0.8 µM
  relative viability: 0.908
[10]; first compound 2.53 µM
  relative viability: 0.889
[11]; first compound 0.08 µM
  relative viability: 0.256
[11]; first compound 0.253 µM
  relative viability: 0.232
[11]; first compound 0.8 µM
  relative viability: 0.252
[11]; first compound 2.53 µM
  relative viability: 0.243
[12]; first compound 0.8 µM
  relative viability: 0.635
[12]; first compound 2.53 µM
  relative viability: 0.633
[13]; first compound 0.08 µM
  relative viability: 0.748
[13]; first compound 0.253 µM
  relative viability: 0.661
[13]; first compound 0.8 µM
  relative viability: 0.664
[13]; first compound 2.53 µM
  relative viability: 0.563
[14]; first compound 0.08 µM
  relative viability: 0.656
[14]; first compound 0.253 µM
  relative viability: 0.38
[14]; first compound 0.8 µM
  relative viability: 0.626
[14]; first compound 2.53 µM
  relative viability: 0.65
[15]; first compound 0.08 µM
  relative viability: 0.844
[15]; first compound 0.253 µM
  relative viability: 0.656
[15]; first compound 0.8 µM
  relative viability: 0.741
[15]; first compound 2.53 µM
  relative viability: 0.718
[16]; first compound 0.08 µM
  relative viability: 0.712
[16]; first compound 0.253 µM
  relative viability: 0.552
[16]; first compound 0.8 µM
  relative viability: 0.515
[16]; first compound 2.53 µM
  relative viability: 0.464
[17]; first compound 0.08 µM
  relative viability: 0.859
[17]; first compound 0.253 µM
  relative viability: 0.69
[17]; first compound 0.8 µM
  relative viability: 0.621
[17]; first compound 2.53 µM
  relative viability: 0.367
[18]; first compound 0.08 µM
  relative viability: 0.937
[18]; first compound 0.253 µM
  relative viability: 0.864
[18]; first compound 0.8 µM
  relative viability: 0.804
[18]; first compound 2.53 µM
  relative viability: 0.708
[19]; first compound 0.08 µM
  relative viability: 1.04
[19]; first compound 0.253 µM
  relative viability: 0.996
[19]; first compound 0.8 µM
  relative viability: 1.01
[19]; first compound 2.53 µM
  relative viability: 1.01
[20]; first compound 0.08 µM
  relative viability: 1.08
[20]; first compound 0.253 µM
  relative viability: 0.97
[20]; first compound 0.8 µM
  relative viability: 1.05
[20]; first compound 2.53 µM
  relative viability: 0.926
[21]; first compound 0.08 µM
  relative viability: 1.25
[21]; first compound 0.253 µM
  relative viability: 1
[21]; first compound 0.8 µM
  relative viability: 1.06
[21]; first compound 2.53 µM
  relative viability: 0.922
